# Experimental data published in patent US10184933B2, “Compositions, systems and methods for gene expression noise drug screening and uses thereof” (priority 2013, dated 2019).
# Entries after “also recorded” stand apart in the source; their conditions may differ. Where a name gives a salt, the structure may show the parent alone. Read-outs that look alike come from different tables or passages of the source.
# Key:
# Format in all cases: cell-based
# HIV-1 LTR promoter [1] = test: Two-reporter system (LTR-d2GFP and LTR-mCherry) noise measurement; conditions: FIG. 6E; for d2GFP noise / mCherry noise: known transcriptional activators; for transcriptional burst frequency (decreasing noise in mCherry): transcriptional modifiers
# Method: Without being bound by theory, a destabilized reporter is required to observe transcriptional noise with shorter time scales. GFP noise magnitude (quantified by the variance over the mean fluorescence squared, CV^2) and mean fluorescence were measured by high-throughput flow cytometry 24 hours post 10 uM drug exposure. To control for extrinsic variability in gene expression due to cell volume and state a conservative gating on the population forward versus side scatter was applied (See General Methods). A second LTR driving a long-lived mCherry reporter was integrated and screened alongside the destabilized reporter drug target to control for fluctuations in global resources and post-transcriptional noise sources (FIG. 6E).
# To distinguish between compounds that primarily target transcription versus post-transcriptional processes and global resources (extrinsic noise) a second reporter of the LTR promoter driving a stable mCherry gene was included in the same targeted cell population used in the drug noise screen (FIG. 6E). The stable reporter averages out and is unaffected by fluctuations due to episodic transcription. Theory predicts that the destabilized d2GFP reporter can detect transcriptional bursting noise contributions (γp>>kon,koff, where γp is the fluorescent reporter degradation rate) while the two reporters together will move their noise magnitudes to changes in non-transcriptional noise sources. Filtering out non-transcriptional noise signatures of VM hits increases the probability for synergistic reactivation of latency. Noise from the two reporters was compared using the same processing as the LTR-d2GFP. The LTR-mCherry ΔCV^2 of the 85 selected VMs primarily land along the ΔCV^2 d2GFP axis. […]. Of these 25 compounds 15 were identified as modifiers of cell cycle, ATP, inflammation, post-translational modifications, and translation.
# In addition to the GFP reporter in the LTR-d2GFP cell line, an LTR driving a long half-life mCherry reporter was present in the cell line. […] To remove compounds that altered CV^2 post transcriptionally, compounds that affected the CV^2 long-lived red reporter while conserving its mean mCherry level were removed. This method continues development of the original and decade-old 2-reporter system for intrinsic versus extrinsic noise measurements in bacteria (Elowitz et al., (2002) Science 297:1183-1186).
# HIV-1 LTR promoter [2] = conditions: for mean expression level / variability in gene expression (noise magnitude): known transcriptional modulators applied to the isoclone target; for mean expression level / variability in gene expression (noise magnitude) / burst frequency: FIG. 6D; for burst frequency: activator drugs
# HIV-1 LTR promoter [3] = test: Single-cell time-lapse fluorescence microscopy of polyclonal LTR d2GFP cell population; conditions: 10 μM, 24 hour pretreatment, tracked 12 hours, ~500 cells
# Source text: Lentiviral vectors expressing the LTR-GFP cassette in the absence of Tat were described (Weinberger et al., 2005, Cell, 122(2):169-182) and used to infect 5×10^5 Jurkat cells at a multiplicity of infection <0.1, resulting in 25,000-50,000 infected cells each presumably with a unique integration site. Cells were then sorted by FACS to isolate green fluorescent protein-labeled (GFP+) cells and fluorescently imaged on glass-bottom dishes in RPMI 1640 with 10% fetal calf serum and 1% penicillin-streptomycin and 10 μM of VM at t=0 h for the population which was pre-treated with VM 1 day before imaging. […] For each trajectory, noise autocorrelation [Φ(t)] and magnitude (CV^2) were calculated using an established noise-processing algorithm (Weinberger at al., 2008, Nature Genetics, 40(4):466-470; Dar at al., 2012, Proc Natl Acad Sci USA 109:17454-17459; Boehm et al., 2013, Cell Cycle 12:452-462).
# To assess whether identified VMs are specific to the integration site of the drug screen target, a polyclonal LTR d2GFP population was treated with select VM hits and imaged using time-lapse single cell fluorescence microscopy (Dar et al., 2012, Proc Natl Acad Sci USA 109:17454-17459; Boehm et al., 2013, Cell Cycle 12:452-462) (FIG. 6C). […]
# [4] = system: latent HIV-1 in primary T-cells
# Method: FIG. 18A schematically depicts a primary T-cell model of HIV-1 latency 48 h after reactivation with PMA or a subset of noise enhancers (% reactivation percentage is calculated relative to maximal reactivation potential). […] The horizontal line represents the mean calculated Bliss Independence Score (C. I. Bliss, Ann. Appl. Biol. 26:585-615 (1939)), a measure for strict additivity for all of the compounds. FIG. 18B schematically depicts stochastic simulations of noise suppression, which reduces noise without altering the mean expression level but limits reactivation induced by an activator. […] Details are described, e.g., in Example 10.
# [5] = system: latent HIV-1 in JLat 8.6 cells
# [6] = Pharmakon 1600 library, 10 uM, 24 hours, FIG. 10
molecule,measurement,setting,value
"CCC/C=C/C=C/C(=O)O[C@H]1/C(=C/C(=O)OC)C[C@H]2C[C@H]([C@@H](C)O)OC(=O)C[C@H](O)C[C@@H]3C[C@H](OC(C)=O)C(C)(C)[C@](O)(C[C@@H]4C/C(=C/C(=O)OC)C[C@H](/C=C/C(C)(C)[C@]1(O)O2)O4)O3 [Bryostatin, bryostatin]",d2GFP noise,HIV-1 LTR promoter [1],decrease both mCherry and d2GFP noise
same,mCherry noise,HIV-1 LTR promoter [1],decrease both mCherry and d2GFP noise
same,transcriptional burst frequency (decreasing noise in mCherry),HIV-1 LTR promoter [1],increase transcriptional burst frequency
same,mean expression level,HIV-1 LTR promoter [2],scored lower
"Nc1ncn([C@@H]2O[C@H](CO)[C@@H](O)[C@H]2O)c(=O)n1 [AZA, 4-Amino-1-(β-D-ribofuranosyl)1,3,5-triazin-2(1H)-one]",transcriptional burst frequency (decreasing noise in mCherry),HIV-1 LTR promoter [1],increase transcriptional burst frequency
same,identified as variability enhancer (VE) in noise screen,HIV-1 LTR promoter [2]; [6],variability enhancers
same,variability in gene expression (noise magnitude),HIV-1 LTR promoter [2],increase variability in gene expression; also recorded: variability enhancers
"CC(=O)O[C@@]12CO[C@@H]1C[C@H](O)[C@@]1(C)C(=O)[C@H](O)C3=C(C)[C@@H](OC(=O)[C@H](O)[C@@H](NC(=O)OC(C)(C)C)c4ccccc4)C[C@@](O)([C@@H](OC(=O)c4ccccc4)[C@H]21)C3(C)C [V1, docetaxel]",identified as variability enhancer (VE) in noise screen,HIV-1 LTR promoter [2]; [6],variability enhancers
same,high frequency noise magnitude (HF-CV^2) versus untreated polyclonal population,HIV-1 LTR promoter [3],increased high frequency noise magnitude; also recorded: increased noise magnitude trends above the untreated population
TNFα,d2GFP noise,HIV-1 LTR promoter [1],decrease both mCherry and d2GFP noise
same,mCherry noise,HIV-1 LTR promoter [1],decrease both mCherry and d2GFP noise
same,transcriptional burst frequency (decreasing noise in mCherry),HIV-1 LTR promoter [1],increase transcriptional burst frequency
same,burst frequency,HIV-1 LTR promoter [2],increase burst frequency
same,mean expression level,HIV-1 LTR promoter [2],increase mean expression level
same,variability in gene expression (noise magnitude),HIV-1 LTR promoter [2],decrease variability in gene expression; also recorded: decrease noise magnitude
"Nc1ccccc1NC(=O)c1ccc(CNC(=O)OCc2cccnc2)cc1 [MS-275, 3-pyridinylmethyl [[4-[[(2-aminophenyl)amino]carbonyl]phenyl]methyl]carbamate]",d2GFP noise,HIV-1 LTR promoter [1],increase d2GFP noise
same,mCherry noise,HIV-1 LTR promoter [1],decrease mCherry noise
same,transcriptional burst frequency (decreasing noise in mCherry),HIV-1 LTR promoter [1],increase transcriptional burst frequency
same,variability in gene expression (noise magnitude),HIV-1 LTR promoter [2],increase variability in gene expression; also recorded: variability enhancers
"COC(=O)Nc1nc2ccc(C(=O)c3ccccc3)cc2[nH]1 [V7, mebendazole]",identified as variability enhancer (VE) in noise screen,HIV-1 LTR promoter [2]; [6],variability enhancers
same,synergy with PMA,[4],reactivating half of the remaining cells that PMA alone did not reactivate
same,increased activation with PMA,"[4]; 48 h, relative to maximal reactivation potential",~20%
same,synergy in reactivation of HIV-1 latency,[5],synergized
"CCCCCCCCCCCCCC(=O)O[C@@H]1[C@@H](C)[C@@]2(O)[C@@H](C=C(CO)C[C@]3(O)C(=O)C(C)=C[C@@H]23)[C@@H]2C(C)(C)[C@]12OC(C)=O [PMA, phorbol 12-myristate 13-acetate]",d2GFP noise,HIV-1 LTR promoter [1],decrease both mCherry and d2GFP noise
same,mCherry noise,HIV-1 LTR promoter [1],decrease both mCherry and d2GFP noise
same,transcriptional burst frequency (decreasing noise in mCherry),HIV-1 LTR promoter [1],increase transcriptional burst frequency
same,burst frequency,HIV-1 LTR promoter [2],increase burst frequency
same,mean expression level,HIV-1 LTR promoter [2],increase mean expression level
same,variability in gene expression (noise magnitude),HIV-1 LTR promoter [2],decrease variability in gene expression; also recorded: decrease noise magnitude
"Oc1ccc(Cl)cc1 [V99, parachlorophenol]",identified as variability enhancer (VE) in noise screen,HIV-1 LTR promoter [2],variability enhancers
same,synergy in reactivation of HIV-1 latency,[5],synergized
"CC1=C(C(=O)O)N2C(=O)[C@@H](NC(=O)[C@H](N)c3ccc(O)cc3)[C@H]2SC1 [V40, cefadroxil]",identified as variability enhancer (VE) in noise screen,HIV-1 LTR promoter [2]; [6],variability enhancers
same,synergy in reactivation of HIV-1 latency,[5],synergized
"COc1cc(C(=O)NCc2ccc(OCCN(C)C)cc2)cc(OC)c1OC [V52, trimethobenzamide hydrochloride]",identified as variability enhancer (VE) in noise screen,HIV-1 LTR promoter [2]; [6],variability enhancers
same,synergy in reactivation of HIV-1 latency,[5],synergized
"CN1CCCN=C1COC(=O)C(O)(c1ccccc1)C1CCCCC1 (stereo not shown) [V47, oxyphencyclimine hydrochloride]",identified as variability enhancer (VE) in noise screen,HIV-1 LTR promoter [2]; [6],variability enhancers
same,synergy in reactivation of HIV-1 latency,[5],synergized
"O=C(Nc1ccccc1)OCC(CN1CCCCC1)OC(=O)Nc1ccccc1 (stereo not shown) [V30, diperodon hydrochloride]",identified as variability enhancer (VE) in noise screen,HIV-1 LTR promoter [2]; [6],variability enhancers
same,synergy in reactivation of HIV-1 latency,[5],synergized
"CN(C)CCC(c1ccc(Cl)cc1)c1ccccn1 (stereo not shown) [V58, chlorpheniramine maleate]",identified as variability enhancer (VE) in noise screen,HIV-1 LTR promoter [2],variability enhancers
same,synergy in reactivation of HIV-1 latency,[5],synergized
"C[N+]12CCC(CC1)C(OC(=O)C(O)(c1ccccc1)c1ccccc1)C2 (stereo not shown) [V49, clidinium bromide]",identified as variability enhancer (VE) in noise screen,HIV-1 LTR promoter [2]; [6],variability enhancers
same,synergy in reactivation of HIV-1 latency,[5],synergized
